# In patent US11702404B2, “GLP-1R modulating compounds” (priority 2019, dated 2023):
# Legend:
# [1] = Microsomal stability, human liver microsomes (predicted hepatic clearance); settings: predicted from in vitro microsomal stability data
# GLP-1R = GLP-1R (Homo sapiens, UniProt P43220); experiment: GLP-1R activation: cAMP increase in CHO cells stably expressing GLP-1R; assay type: cell-based; settings: cAMP increase, CHO cells stably expressing GLP-1R, 10 point dose response, 30 minutes incubation; read-out: EC50
# Chain of GLP-1R (P43220 24-463): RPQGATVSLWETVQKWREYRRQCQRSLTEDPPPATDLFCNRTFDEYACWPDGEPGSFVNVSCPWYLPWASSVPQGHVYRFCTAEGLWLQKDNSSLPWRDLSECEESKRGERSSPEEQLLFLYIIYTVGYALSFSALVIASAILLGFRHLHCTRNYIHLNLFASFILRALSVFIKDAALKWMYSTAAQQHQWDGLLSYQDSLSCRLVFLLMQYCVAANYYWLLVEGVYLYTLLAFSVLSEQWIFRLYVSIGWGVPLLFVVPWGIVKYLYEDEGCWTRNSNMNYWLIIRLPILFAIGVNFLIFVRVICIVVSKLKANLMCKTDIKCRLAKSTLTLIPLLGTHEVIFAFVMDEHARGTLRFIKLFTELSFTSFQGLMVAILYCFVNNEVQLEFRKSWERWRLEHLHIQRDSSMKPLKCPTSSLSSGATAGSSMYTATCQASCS
SMILES,Predicted Hepatic Clearance (Pred. Cl.) [1] [mL/min/kg],EC50 (GLP-1R) [nM]
"CN1C[C@@](C)(Cn2c(Cc3cc(F)c(-c4cccc(OCc5ccc(C#N)cc5F)n4)cc3F)nc3ccc(C(=O)O)cc32)C1=O (racemic) [Example 272, 2-(4-(6-((4-cyano-2-fluorobenzyl)oxy)pyridin-2-yl)-2,5-difluorobenzyl)-1-((1,3-dimethyl-2-oxoazetidin-3-yl)methyl)-1H-benzo[d]imidazole-6-carboxylic acid]",9.67,1.66
"CC(C#N)Cn1c(Cc2cc(F)c(-c3cccc(OCc4ccc(C#N)cc4F)n3)cc2F)nc2ccc(C(=O)O)cc21 (racemic) [Example 306, 2-(4-(6-((4-cyano-2-fluorobenzyl)oxy)pyridin-2-yl)-2,5-difluorobenzyl)-1-(2-cyanopropyl)-1H-benzo[d]imidazole-6-carboxylic acid]",6,1.86
"COCCn1c([C@@H](C)c2ccc(-c3cccc(OCc4ccc(C#N)cc4F)n3)cc2)nc2ccc(C(=O)O)cc21 (racemic) [Example 447, 2-(1-(4-(6-((4-cyano-2-fluorobenzyl)oxy)pyridin-2-yl)phenyl)ethyl)-1-(2-methoxyethyl)-1H-benzo[d]imidazole-6-carboxylic acid]",5,1100
"N#Cc1ccc(COc2cccc(-c3ccc(Cc4nc5ccc(C(=O)O)cc5n4C[C@H]4CCS4(=O)=O)cc3)n2)c(F)c1 (racemic) [Example 475, 2-(4-(6-((4-cyano-2-fluorobenzyl)oxy)pyridin-2-yl)benzyl)-1-((1,1-dioxidothietan-2-yl)methyl)-1H-benzo[d]imidazole-6-carboxylic acid]",2,325
"COCCn1c(Cc2ccc(-c3cccc(OCc4ccc(C#N)cc4F)n3)cc2-c2cccnc2)nc2ccc(C(=O)O)cc21 [Example 185, 2-(4-(6-((4-cyano-2-fluorobenzyl)oxy)pyridin-2-yl)-2-(pyridin-3-yl)benzyl)-1-(2-methoxyethyl)-1H-benzo[d]imidazole-6-carboxylic acid]",12,–
"COCCn1c(Cc2c(F)cc(-c3cnccc3OCc3ccc(C#N)cc3F)cc2F)nc2ccc(C(=O)O)cc21 [Example 191, 2-(4-(4-((4-cyano-2-fluorobenzyl)oxy)pyridin-3-yl)-2,6-difluorobenzyl)-1-(2-methoxyethyl)-1H-benzo[d]imidazole-carboxylic acid]",7.83,–
"COCCn1c(Cc2ccc(-c3nnc(OCc4ccc(C#N)cc4F)s3)cc2F)nc2ccc(C(=O)O)cc21 [Example 213, 2-(4-(5-((4-cyano-2-fluorobenzyl)oxy)-1,3,4-thiadiazol-2-yl)-2-fluorobenzyl)-1-(2-methoxyethyl)-1H-benzo[d]imidazole-carboxylic acid]",9.17,–
"COCCn1c(Cc2ccc(-c3cccc(OCc4ccc(C#N)cc4F)n3)c(NC(C)=O)c2)nc2ccc(C(=O)O)cc21 [Example 253, 2-(3-acetamido-4-(6-((4-cyano-2-fluorobenzyl)oxy)pyridin-2-yl)benzyl)-1-(2-methoxyethyl)-1H-benzo[d]imidazole-6-carboxylic acid]",14,–
"COCCn1c(Cn2cc(-c3cccc(OCc4ccc(C#N)cc4F)n3)cn2)nc2ccc(C(=O)O)cc21 [Example 282, 2-((4-(6-((4-cyano-2-fluorobenzyl)oxy)pyridin-2-yl)-1H-pyrazol-1-yl)methyl)-1-(2-methoxyethyl)-1H-benzo[d]imidazole-6-carboxylic acid]",8.17,–
"COCCn1c(Cc2ccc(-c3cccc(OCc4ccc5cn[nH]c5c4)n3)cc2F)nc2ccc(C(=O)O)cc21 [Example 463, 2-(4-(6-((1H-indazol-6-yl)methoxy)pyridin-2-yl)-2-fluorobenzyl)-1-(2-methoxyethyl)-1H-benzo[d]imidazole-6-carboxylic acid]",2.33,–
"CC(=O)N1CCC[C@H]1Cn1c(Cc2ccc(-c3ccc(F)c(OCc4ccc(Cl)cc4F)c3)cc2F)nc2ccc(C(=O)O)cc21 [Example 464, (S)-1-((1-acetylpyrrolidin-2-yl)methyl)-2-((3′-((4-chloro-2-fluorobenzyl)oxy)-3,4′-difluoro-[1,1′-biphenyl]-4-yl)methyl)-1H-benzo[d]imidazole-6-carboxylic acid]",4,–
"COCCn1c(Cc2ccc(-c3cccc(OCc4cccc5cc[nH]c45)n3)cc2F)nc2ccc(C(=O)O)cc21 [Example 479, 2-(4-(6-((1H-indol-7-yl)methoxy)pyridin-2-yl)-2-fluorobenzyl)-1-(2-methoxyethyl)-1H-benzo[d]imidazole-6-carboxylic acid]",9.33,–
"CC(=O)N1CCC[C@H]1Cn1c(Cc2ccc(-c3ccc(F)c(OCc4ccc(Cl)cc4F)c3)cc2F)nc2ccc(C(=O)O)cc21 [Example 482, 3-[[(2S)-1-acetylpyrrolidin-2-yl]methyl]-2-[[4-[3-[(4-chloro-2-fluoro-phenyl)methoxy]-4-fluoro-phenyl]-2-fluoro-phenyl]methyl]benzimidazole-5-carboxylic acid]",4.83,–
"COCCn1c(Cc2ccc(-c3cccc(OCc4ccccc4N)n3)cc2F)nc2ccc(C(=O)O)cc21 [Example 498, 2-(4-(6-((2-aminobenzyl)oxy)pyridin-2-yl)-2-fluorobenzyl)-1-(2-methoxyethyl)-1H-benzo[d]imidazole-6-carboxylic acid]",<1.83,–
"COCCn1c(Cc2ccc(-c3cccc(OCn4ccc(C(=O)O)cc4=O)n3)cc2F)nc2ccc(C(=O)O)cc21 [Example 503, 2-(4-(6-((4-carboxy-2-oxopyridin-1(2H)-yl)methoxy)pyridin-2-yl)-2-fluorobenzyl)-1-(2-methoxyethyl)-1H-benzo[d]imidazole-6-carboxylic acid]",<1.83,–
"COCCn1c(Cc2ccc(-c3cccc(OCc4ccccc4S(C)(=O)=O)n3)cc2F)nc2ccc(C(=O)O)cc21 [Example 510, 2-(2-fluoro-4-(6-((2-(methylsulfonyl)benzyl)oxy)pyridin-2-yl)benzyl)-1-(2-methoxyethyl)-1H-benzo[d]imidazole-6-carboxylic acid]",14.5,–
"CCOP(=O)(OCC)c1ccc2nc(Cc3ccc(-c4cccc(OCc5ccc(C#N)cc5F)n4)cc3F)n(CCOC)c2c1 [Example 556, Diethyl (2-(4-(6-((4-cyano-2-fluorobenzyl)oxy)pyridin-2-yl)-2-fluorobenzyl)-1-(2-methoxyethyl)-1H-benzo[d]imidazol-6-yl)phosphonate]",19.5,–
"COCCn1c(Cc2ccc(-c3cccc(OCc4ccc(C(F)(F)F)nc4N)n3)cc2F)nc2ccc(C(=O)O)cc21 [Example 595, 2-(4-(6-((2-amino-6-(trifluoromethyl)pyridin-3-yl)methoxy)pyridin-2-yl)-2-fluorobenzyl)-1-(2-methoxyethyl)-1H-benzo[d]imidazole-6-carboxylic acid]",6.17,–
COCCn1c(Cc2cc(F)c(-c3ccc(F)c(OCc4cc(F)c(C#N)cc4F)n3)cc2F)nc2c(F)cc(C(=O)O)cc21 [Example 763],1.83,–
